What was measured:
Cat-L [1] = conditions: estimated by comparison with control peptide LQTLALWSRMDQL; C-peptide plus WE14 with Cat-L
From the text: (§1) For APCs, we used the IA^g7-expressing M12.C3 B cell lymphoma (M12.C3.g7; [Carrasco-Marin et al., 1996]). Four T cell hybridomas were used in various stimulation assays. BDC-2.5 and BDC-10.1 were provided by Dr. Kathryn Haskins (University of Colorado Medical School, Aurora, CO). G7W120 was produced in this laboratory ([Jin et al., 2015]). The insulin B:9-23 reactive AS91 T cell hybridoma ([Levisetti et al., 2007]) was provided by Dr. Emil Unanue (Washington University, St. Louis, MO). T cell hybridomas (10^5 cells) were mixed with either 10^5 paraformaldehyde-fixed APCs or 10^5 unfixed APCs and cultured overnight with various concentrations of synthetic peptide or volumes of a pH-adjusted cathepsin digestion mixture in a final volume of 250 µl. Secreted IL-2 was assayed with a functional assay where the growth and survival of an HT-2 IL-2–dependent cell line was quantified using the dye MTT ([White et al., 2000]) and reported as units per milliliter based on comparison to an IL-2 standard.

BDC-10.1 T cell = conditions: for stimulation of BDC-10.1 (IL-2): M12.C3.g7 APCs, peptides at the concentrations used in the digests, average of three experiments
From the text: as §1

livCat-L and recCat-L = conditions: MS/MS
Cat-L [2] = tested on: Cat-L
[3] = tested on: BDC-2.5, BDC-10.1, and G7W-120 T cells
ChgA-specific T cells = conditions: words; ref Stadinski et al., 2010a; cited from earlier work

## C-peptide
Cat-L [1]
  C-peptide converted to a stimulatory peptide: 2.5–5%
BDC-10.1 T cell
  stimulation of BDC-10.1 (IL-2): neither C-peptide nor WE14 alone had any activity
livCat-L and recCat-L
  cleavage of mouse C-peptide: The cleavage after TLAL was found in both digests

## LQTLALWSRMDQL
BDC-10.1 T cell
  stimulation of BDC-10.1 (IL-2): highly stimulatory

## RKLLW-NH2
BDC-10.1 T cell; control for nonspecific inhibition of the stimulation assay
  inhibition of BDC-10.1 response to 0.17 µM LQTLALWSRMDQL by carried-over inhibitor: not inhibitory
Cat-L [2]; increasing inhibitor concentrations (44-350 µM)
  inhibition of generation of the active peptide, words: inhibited by RKLLW-NH2 in a dose-dependent manner
Cat-L [2]; inhibitor at same concentration as C-peptide substrate, livCat-L or recCat-L, preincubated 30 min on ice
  inhibition of generation of the active peptide by Cat-L: ~50%

## WSRMDQLAKELTAE [WE14]
BDC-10.1 T cell
  stimulation of BDC-10.1 (IL-2): neither C-peptide nor WE14 alone had any activity
[3]
  stimulation of three T cells (IL-2): inactive at the concentrations tested here
ChgA-specific T cells
  agonism for BDC-2.5 and other ChgA-specific T cells: weak agonist

From publication PMC7590512, “Lysosomal cathepsin creates chimeric epitopes for diabetogenic CD4 T cells via transpeptidation” (The Journal of Experimental Medicine, 2020)
